Test [1] concerns Tie2. In words: Western blot of phospho-Tie2 (Y992) in MEC monolayers treated with AXT107 and angiopoietin. It counts as cell-based, human. As for the experimental part: (§1) A confluent monolayer of human microvascular endothelial cells (HMEC) was serum starved with EBM-2 overnight. After a 90 min treatment with AXT107 at concentrations of 0, 10, 32, and 100 μM, the cells were treated for 15 min with 1 mM sodium orthovanadate. Next the cells were treated with Angiopoietin-2 (Ang-2) at 200 ng/mL for 15 min. Following cell lysis, the lysates were immunoblotted for pTie2 (Y992), pSTAT3 (Y705), and pAkt (S473).
To investigate the effects of the integrin inhibitor AXT107 on Tie2 signaling, confluent monolayers of microvascular endothelial cells (MECs) on fibronectin-coated dishes were treated with various concentrations of AXT107 followed by exposure to the Tie2 ligands Ang1 or Ang2.
For Ang1/2 signaling investigations, cell culture dishes (10 cm diameter) were coated with 5 μg/ml fibronectin (FN1; Sigma-Aldrich, St. Louis, Mo.) for two hours at 37° C. The FN1 solution was then removed by aspiration and 5×10^6 microvascular endothelial cells (MECs; Lonza, Walkersville, Md.) were plated in EGM-2MV media (Lonza) and cultured for forty-eight hours at 37° C. The cells were then serum starved for sixteen hours in serum-free EGM-2 base media (Lonza). AXT107 (0-100 μM, as indicated) was subsequently added to each culture and incubated for seventy-five minutes at 37° C. The cultures were then treated with 1 mM sodium vanadate (New England Biolabs, Ipswich, Mass.) for fifteen minutes to enhance the phospho-Tie2 signal followed by stimulation with 200 ng/ml angiopoietin (R&D Systems, Minneapolis, Minn.) for an additional fifteen minutes. The cells were then transferred to ice, washed twice with ice cold Dulbecco's phosphate-buffered saline (dPBS) containing Ca^2+ and Mg^2+, and collected by scraping in 500 μl of 1×Blue Loading Buffer (Cell Signaling, Danvers, Mass.). Lysate samples were then sonicated, boiled, and resolved by SDS-PAGE. Specific proteins were identified by Western blot, using the following primary antibodies: Cell Signaling—phospho-Tie2 (Y992) (Cat#: 4221), Tie2 (Cat#: 7403), phospho-Stat3 (Y705) (Cat#: 4113), Stat3 (Cat#: 4904), phospho-Akt (S473) (Cat#: 4058), Akt (Cat#: 9272), phospho-p44/42 MAPK (T202/Y204) (Cat#: 4370), p44/42 MAPK (Cat#: 4695); BD Transduction Laboratories—β1 integrin (Cat#: 610467); Millipore—α5 integrin (Cat#: AB1928) and detected with HRP-conjugated goat anti-rabbit and sheep anti-mouse secondary antibodies (GE healthcare).

The test system of test [2] is Akt. In words: Western blot of phospho-Akt (S473) in MEC lysates treated with Ang2 and AXT107. It counts as cell-based, human. As for the experimental part:
as §1
(§2) For Ang1/2 signaling investigations, cell culture dishes (10 cm diameter) were coated with 5 μg/ml fibronectin (FN1; Sigma-Aldrich, St. Louis, Mo.) for two hours at 37° C. The FN1 solution was then removed by aspiration and 5×10^6 microvascular endothelial cells (MECs; Lonza, Walkersville, Md.) were plated in EGM-2MV media (Lonza) and cultured for forty-eight hours at 37° C. […] Specific proteins were identified by Western blot, using the following primary antibodies: Cell Signaling—phospho-Tie2 (Y992) (Cat#: 4221), Tie2 (Cat#: 7403), phospho-Stat3 (Y705) (Cat#: 4113), Stat3 (Cat#: 4904), phospho-Akt (S473) (Cat#: 4058), Akt (Cat#: 9272), phospho-p44/42 MAPK (T202/Y204) (Cat#: 4370), p44/42 MAPK (Cat#: 4695); BD Transduction Laboratories—β1 integrin (Cat#: 610467); Millipore—α5 integrin (Cat#: AB1928) and detected with HRP-conjugated goat anti-rabbit and sheep anti-mouse secondary antibodies (GE healthcare).
On the technique in general: In western blotting, separated proteins are transferred to a membrane and probed.

Test [3] has as its target T1, α5 and β1 integrin subunits (Homo sapiens, UniProt P05556+P08648).
T1 construct: host or cells: human dermal microvascular endothelial cells (MEC)
In words: Duolink protein interaction analysis. It counts as cell-based. The settings on record: MEC monolayers; 100 μM AXT107 vs vehicle. As for the experimental part:
Additionally, changes in the interaction between the α5 s and β1 subunits were further investigated using Duolink™ technology which can visualize individual interactions between α5 and β1 integrin subunits as distinct spots by fluorescence microscopy.
Glass bottom, 96-well plates were coated with FN1, seeded with MECs, as described above for the immunofluorescence experiments. After growing for forty-eight hours, cells were serum starved for three hours, treated with 100 μM AXT107 or DMSO vehicle for ninety minutes, washed twice with dPBS containing Ca^2+ and Mg^2+, and fixed in 10% neutral buffered formalin. Cells were blocked in 5% normal goat serum; 0.3% Triton X-100 in dPBS containing Ca^2+ and Mg^2+ for one hour and incubated overnight at 4° C. with rabbit anti-α5 integrin and mouse anti-β1 integrin antibodies in PBS containing Ca^2+ and Mg^2+ with 1% BSA and 0.1% Triton X-100. Interaction spots were developed using DUOLINK green detection reagent according to the manufacturer's instructions and detected using the BD pathway 855 system.

For test [4], the system named is VE-cadherin. In words: VE-cadherin western blot and immunofluorescence in MEC monolayers. The test is classed as cell-based, human. How it is done:
The jaggedness of these junctions is related to the structure of actin within the cell.
Glass-bottomed, 96-well plates with half well size were coated with 10 μg/ml FN1 for two hours at 37° C. The FN1 solution was then removed by aspiration and the plate seeded with 4×10^3 MECs in EGM-2MV media. After twenty-four hours, the cells were washed once with dPBS containing Ca^2+ and Mg^2+ to remove dead cells and the cells were allowed to grow for an additional twenty-four hours. For three-hour duration treatments (i.e., VE-cadherin), cells were washed twice with dPBS containing Ca^2+ and Mg^2+ and serum starved in EBM-2 for ninety minutes. The media was then removed and the cells were treated for three hours with 100 μl of EBM-2 media containing 200 ng/ml Ang2 or PBS and varying concentrations of AXT107 or DMSO. For fifteen minute-treated samples (i.e., phospho-Tie2), the cells were serum starved in EBM-2 media for 165 minutes, incubated for ninety minutes with varying concentrations of AXT107 or DMSO in EBM-2, and finally stimulated for fifteen minutes with 200 ng/ml Ang2 or PBS supplemented with peptide to retain the same concentrations. These times were chosen so that both treatment procedures would be completed at the same time. The cells were then washed twice with cold dPBS containing Ca^2+ and Mg^2+ and fixed in 10% neutral buffered formalin for fifteen minutes. […]

For test [5], the system named is myosin light chain 2 (MLC2). In words: Western blot of pMLC2 in MECs treated with Ang2 and AXT107. The test is classed as cell-based, human. The settings on record: AXT107 and 200 ng/ml Ang2. How it is done: Phosphorylation of Tie2 is known to stimulate the Rap1-GTPase pathway, leading to a reduction in the phosphorylation of the downstream motor protein myosin light chain 2 (MLC2) associated with actin rearrangement.
as §2, with “forty-eight hours at 37° C. The cells were then serum starved for sixteen hours in serum-free EGM-2 base media (Lonza). AXT107 (0-100 μM, as indicated) was subsequently added to each culture and incubated for seventy-five minutes at 37°” for “forty-eight hours at 37°”

Entries after “also recorded” stand apart in the source; their conditions may differ.

T1 sequence (P08648 42-894 limits assumed): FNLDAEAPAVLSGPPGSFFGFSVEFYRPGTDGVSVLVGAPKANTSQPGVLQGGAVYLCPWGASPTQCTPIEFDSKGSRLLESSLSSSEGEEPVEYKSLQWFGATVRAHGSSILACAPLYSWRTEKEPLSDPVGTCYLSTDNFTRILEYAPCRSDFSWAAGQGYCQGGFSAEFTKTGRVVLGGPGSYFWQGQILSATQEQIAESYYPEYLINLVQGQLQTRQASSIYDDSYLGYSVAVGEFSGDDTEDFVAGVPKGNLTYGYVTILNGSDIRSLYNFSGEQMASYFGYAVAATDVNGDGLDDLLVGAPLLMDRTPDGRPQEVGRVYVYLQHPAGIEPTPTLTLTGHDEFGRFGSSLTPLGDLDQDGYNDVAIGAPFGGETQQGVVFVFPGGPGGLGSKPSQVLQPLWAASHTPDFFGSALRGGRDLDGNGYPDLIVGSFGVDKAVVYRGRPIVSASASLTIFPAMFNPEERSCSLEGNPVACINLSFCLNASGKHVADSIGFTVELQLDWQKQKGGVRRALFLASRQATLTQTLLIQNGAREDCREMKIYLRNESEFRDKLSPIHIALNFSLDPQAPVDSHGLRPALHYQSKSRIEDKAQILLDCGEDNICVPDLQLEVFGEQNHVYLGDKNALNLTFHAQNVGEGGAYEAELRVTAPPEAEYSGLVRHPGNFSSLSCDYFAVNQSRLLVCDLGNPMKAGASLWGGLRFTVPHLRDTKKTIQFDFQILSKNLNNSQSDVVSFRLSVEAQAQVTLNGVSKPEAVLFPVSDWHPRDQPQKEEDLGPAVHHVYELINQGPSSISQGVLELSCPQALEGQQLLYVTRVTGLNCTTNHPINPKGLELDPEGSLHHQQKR
T1 sequence (P08648 895-1049 limits assumed): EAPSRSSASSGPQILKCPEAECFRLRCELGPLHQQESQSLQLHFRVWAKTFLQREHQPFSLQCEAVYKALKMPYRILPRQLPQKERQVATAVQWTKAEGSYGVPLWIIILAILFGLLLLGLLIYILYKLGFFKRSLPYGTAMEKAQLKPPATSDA
T1 sequence (P05556 21-798): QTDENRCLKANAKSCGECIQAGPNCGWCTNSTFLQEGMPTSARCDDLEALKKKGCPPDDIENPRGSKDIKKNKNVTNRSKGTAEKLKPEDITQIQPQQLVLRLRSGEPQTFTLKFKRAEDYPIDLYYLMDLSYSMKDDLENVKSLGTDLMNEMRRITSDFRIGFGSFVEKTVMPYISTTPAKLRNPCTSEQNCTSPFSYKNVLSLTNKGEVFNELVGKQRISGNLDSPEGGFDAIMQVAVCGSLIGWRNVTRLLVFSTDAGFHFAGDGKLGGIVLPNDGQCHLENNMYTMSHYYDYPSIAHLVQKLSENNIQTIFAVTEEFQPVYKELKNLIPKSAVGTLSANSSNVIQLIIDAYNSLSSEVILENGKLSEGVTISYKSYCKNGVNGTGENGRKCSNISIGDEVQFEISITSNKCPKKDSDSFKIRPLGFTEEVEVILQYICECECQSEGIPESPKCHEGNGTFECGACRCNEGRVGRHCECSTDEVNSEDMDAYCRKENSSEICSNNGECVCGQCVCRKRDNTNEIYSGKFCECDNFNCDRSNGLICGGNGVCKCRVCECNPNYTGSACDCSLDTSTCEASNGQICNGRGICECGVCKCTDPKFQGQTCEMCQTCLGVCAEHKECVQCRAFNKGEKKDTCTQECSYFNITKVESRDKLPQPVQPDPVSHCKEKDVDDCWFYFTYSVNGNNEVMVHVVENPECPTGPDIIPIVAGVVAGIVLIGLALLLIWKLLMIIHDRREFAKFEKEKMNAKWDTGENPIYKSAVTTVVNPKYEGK

Regarding LRRFSTAPFAFIDINDVINF [AXT107], the Tie2 phosphorylation entry in test [1] (AXT107 0-100 μM, then 200 ng/ml Ang2 15 min) is given as “increased phosphorylation; also recorded: significant, dose-dependent increase”. Further, the “Ang1 activity (Tie2 phosphorylation)” value in test [1] (AXT107 followed by Ang1, data not shown) was “did not significantly influence”. Besides, the “total protein levels of Tie2” value in test [1] (AXT107 with angiopoietin) is reported as “remained unchanged; also recorded: does not influence total levels of Tie2”. In addition, the “phosphorylation by peptide alone” value in test [1] (in absence of either ligand) is “not induced”. Also, in test [2], the Akt phosphorylation result is given as “increased phosphorylation”. Further, the “interactions between α5 and β1 integrin subunits” value in test [3] is “significantly reduced”. Also, in test [4] (200 ng/ml Ang2, increasing concentrations of AXT107), the “distribution of VE-cadherin at junctions” value is recorded as “became progressively smoother”. In test [4] (three hours of AXT107 and 200 ng/ml Ang2), the “total level of VE-cadherin” value is listed as “remained unchanged”. Also, the “phosphorylation of MLC2” value in test [5] was “reduced in a dose-dependent manner”.
